Reference: patent publication US20230085307A1, “PYRIDAZINONE COMPOUND AND HERBICIDE” (NISSAN CHEMICAL CORPORATION, priority 2019, published 2023)

Assays:
[1] = system: rice flat sedge; test: Test Example 3: herbicidal effect by foliage application, Wagner pot (Table 18, symbol E); assay type: in vivo, rice flat sedge (Cyperus iria); details: amount of applied herbicide 320 g/ha
Procedure, shortened: (§1)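 Plants were sown in alluvial soil held under 0.1–0.5 cm standing water and grown 14 days in a greenhouse at 25–30 °C. An emulsifiable formulation, water-diluted to the set dose, was then sprayed onto the foliage, and effects were scored three weeks later using previously defined criteria.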

[2] = system: redroot pigweed; test: Test Example 5: herbicidal effect by foliage application, plastic box (Table 20, symbol N); assay type: in vivo, redroot pigweed (Amaranthus retroflexus); details: foliage application, 320 g/ha, evaluated three weeks after application
Procedure, shortened: (§2)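 Plants sown in sterilized diluvial soil and grown 14 days in a greenhouse at 25° C to 30° C, then sprayed on the foliage with the compound's emulsion diluted in water to a predetermined herbicide amount. Injury to weeds and crops scored three weeks after application on a visual rating scale.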

[3] = system: green foxtail; test: Test Example 5: herbicidal effect by foliage application, plastic box (Table 20, symbol G); assay type: in vivo, green foxtail (Setaria viridis); details: foliage application, 320 g/ha, evaluated three weeks after application
Procedure, shortened: as §2

[4] = system: barnyard grass; test: Test Example 4: herbicidal effect by soil treatment (Table 19, symbol H); assay type: in vivo, barnyard grass (Echinochloa crus-galli); details: amount of applied herbicide 320 g/ha
Procedure, shortened: (§3)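 Three weeks of greenhouse growth at 25° C. to 30° C. followed a uniform surface spray of water-diluted emulsion at a predetermined herbicide amount. Seeds had been sown beforehand under about 1.5 cm of sterilized diluvial soil. Grading followed criteria set out in an earlier test.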

[5] = system: velvetleaf; test: Test Example 5: herbicidal effect by foliage application, plastic box (Table 20, symbol M); assay type: in vivo, velvetleaf (Abutilon theophrasti); details: foliage application, 320 g/ha, evaluated three weeks after application
Procedure, shortened: as §2

[6] = system: lambsquarters; test: Test Example 5: herbicidal effect by foliage application, plastic box (Table 20, symbol O); assay type: in vivo, lambsquarters (Chenopodium album); details: foliage application, 320 g/ha, evaluated three weeks after application
Procedure, shortened: as §2

[7] = system: southern crabgrass; test: Test Example 4: herbicidal effect by soil treatment (Table 19, symbol F); assay type: in vivo, southern crabgrass (Digitaria ciliaris); details: amount of applied herbicide 320 g/ha
Procedure, shortened: as §3

[8] = system: blackgrass; test: Test Example 4: herbicidal effect by soil treatment (Table 19, symbol J); assay type: in vivo, blackgrass (Alopecurus myosuroides); details: amount of applied herbicide 320 g/ha
Procedure, shortened: as §3

[9] = system: barnyard grass; test: Test Example 5: herbicidal effect by foliage application, plastic box (Table 20, symbol H); assay type: in vivo, barnyard grass (Echinochloa crus-galli); details: foliage application, 320 g/ha, evaluated three weeks after application
Procedure, shortened: as §2

[10] = system: barnyard grass; test: Test Example 3: herbicidal effect by foliage application, Wagner pot (Table 18, symbol H); assay type: in vivo, barnyard grass (Echinochloa crus-galli); details: amount of applied herbicide 320 g/ha
Procedure, shortened: as §1

[11] = system: blackgrass; test: Test Example 5: herbicidal effect by foliage application, plastic box (Table 20, symbol J); assay type: in vivo, blackgrass (Alopecurus myosuroides); details: foliage application, 320 g/ha, evaluated three weeks after application
Procedure, shortened: as §2

[12] = system: Italian ryegrass; test: Test Example 4: herbicidal effect by soil treatment (Table 19, symbol K); assay type: in vivo, Italian ryegrass (Lolium multiflorum); details: amount of applied herbicide 320 g/ha
Procedure, shortened: as §3

[13] = system: lambsquarters; test: Test Example 4: herbicidal effect by soil treatment (Table 19, symbol O); assay type: in vivo, lambsquarters (Chenopodium album); details: amount of applied herbicide 320 g/ha
Procedure, shortened: as §3

[14] = system: Chinese sprangletop; test: Test Example 3: herbicidal effect by foliage application, Wagner pot (Table 18, symbol D); assay type: in vivo, chinese sprangletop (Leptochloa chinensis); details: amount of applied herbicide 320 g/ha
Procedure, shortened: as §1

[15] = system: persian speedwell; test: Test Example 4: herbicidal effect by soil treatment (Table 19, symbol R); assay type: in vivo, Persian speedwell (Veronica persica); details: amount of applied herbicide 320 g/ha
Procedure, shortened: as §3

[16] = system: redroot pigweed; test: Test Example 4: herbicidal effect by soil treatment (Table 19, symbol N); assay type: in vivo, redroot pigweed (Amaranthus retroflexus); details: amount of applied herbicide 320 g/ha
Procedure, shortened: as §3

[17] = system: persian speedwell; test: Test Example 5: herbicidal effect by foliage application, plastic box (Table 20, symbol R); assay type: in vivo, Persian speedwell (Veronica persica); details: foliage application, 320 g/ha, evaluated three weeks after application
Procedure, shortened: as §2

[18] = system: chickweed; test: Test Example 5: herbicidal effect by foliage application, plastic box (Table 20, symbol P); assay type: in vivo, common chickweed (Stellaria media); details: foliage application, 320 g/ha, evaluated three weeks after application
Procedure, shortened: as §2

[19] = system: wild oat; test: Test Example 5: herbicidal effect by foliage application, plastic box (Table 20, symbol I); assay type: in vivo, wild oat (Avena fatua); details: foliage application, 320 g/ha, evaluated three weeks after application
Procedure, shortened: as §2

[20] = system: windgrass; test: Test Example 5: herbicidal effect by foliage application, plastic box (Table 20, symbol L); assay type: in vivo, windgrass (Apera spica-venti); details: foliage application, 320 g/ha, evaluated three weeks after application
Procedure, shortened: as §2

[21] = system: velvetleaf; test: Test Example 4: herbicidal effect by soil treatment (Table 19, symbol M); assay type: in vivo, velvetleaf (Abutilon theophrasti); details: amount of applied herbicide 320 g/ha
Procedure, shortened: as §3

[22] = system: Italian ryegrass; test: Test Example 5: herbicidal effect by foliage application, plastic box (Table 20, symbol K); assay type: in vivo, Italian ryegrass (Lolium multiflorum); details: foliage application, 320 g/ha, evaluated three weeks after application
Procedure, shortened: as §2

[23] = system: chickweed; test: Test Example 4: herbicidal effect by soil treatment (Table 19, symbol P); assay type: in vivo, common chickweed (Stellaria media); details: amount of applied herbicide 320 g/ha
Procedure, shortened: as §3

[24] = system: false cleavers; test: Test Example 4: herbicidal effect by soil treatment (Table 19, symbol Q); assay type: in vivo, false cleavers (Galium spurium); details: amount of applied herbicide 320 g/ha
Procedure, shortened: as §3

[25] = system: windgrass; test: Test Example 4: herbicidal effect by soil treatment (Table 19, symbol L); assay type: in vivo, windgrass (Apera spica-venti); details: amount of applied herbicide 320 g/ha
Procedure, shortened: as §3

[26] = system: wild oat; test: Test Example 4: herbicidal effect by soil treatment (Table 19, symbol I); assay type: in vivo, wild oat (Avena fatua); details: amount of applied herbicide 320 g/ha
Procedure, shortened: as §3

[27] = system: southern crabgrass; test: Test Example 5: herbicidal effect by foliage application, plastic box (Table 20, symbol F); assay type: in vivo, southern crabgrass (Digitaria ciliaris); details: foliage application, 320 g/ha, evaluated three weeks after application
Procedure, shortened: as §2

[28] = system: green foxtail; test: Test Example 4: herbicidal effect by soil treatment (Table 19, symbol G); assay type: in vivo, green foxtail (Setaria viridis); details: amount of applied herbicide 320 g/ha
Procedure, shortened: as §3

Compound	herbicidal effect on E: rice flat sedge [1]	H: barnyard grass, herbicidal effect rating [4]	F: southern crabgrass, herbicidal effect rating [7]	J: blackgrass, herbicidal effect rating [8]	herbicidal effect on H: barnyard grass [10]	K: Italian ryegrass, herbicidal effect rating [12]	O: lambsquarters, herbicidal effect rating [13]	herbicidal effect on D: Chinese sprangletop [14]	R: persian speedwell, herbicidal effect rating [15]	N: redroot pigweed, herbicidal effect rating [16]	M: velvetleaf, herbicidal effect rating [21]	P: chickweed, herbicidal effect rating [23]	Q: false cleavers, herbicidal effect rating [24]	L: windgrass, herbicidal effect rating [25]	I: wild oat, herbicidal effect rating [26]	G: green foxtail, herbicidal effect rating [28]	also measured
Cc1ccc2sc(-c3ccccc3)c(-c3c(O)c(C)nn(C)c3=O)c2c1 [2-132]	5 (Herbicidal rate of 90% or more (almost completely withered))	3 (Herbicidal rate of 40% or more and less than 70%)	1 (Herbicidal rate of 5% or more and less than 20%)	0 (Herbicidal rate of 5% or less (almost no effect))	0 (Herbicidal rate of 5% or less (almost no effect))	2 (Herbicidal rate of 20% or more and less than 40%)	5 (Herbicidal rate of 90% or more (almost completely withered))	0 (Herbicidal rate of 5% or less (almost no effect))	3 (Herbicidal rate of 40% or more and less than 70%)	0 (Herbicidal rate of 5% or less (almost no effect))	0 (Herbicidal rate of 5% or less (almost no effect))	4 (Herbicidal rate of 70% or more and less than 90%)	0 (Herbicidal rate of 5% or less (almost no effect))	0 (Herbicidal rate of 5% or less (almost no effect))	0 (Herbicidal rate of 5% or less (almost no effect))	3 (Herbicidal rate of 40% or more and less than 70%)	herbicidal effect on N: redroot pigweed [2]: 5 (Herbicidal rate of 90% or more (almost completely withered)); herbicidal effect on G: green foxtail [3]: 3 (Herbicidal rate of 40% or more and less than 70%); herbicidal effect on M: velvetleaf [5]: 3 (Herbicidal rate of 40% or more and less than 70%); herbicidal effect on O: lambsquarters [6]: 4 (Herbicidal rate of 70% or more and less than 90%); herbicidal effect on H: barnyard grass [9]: 0 (Herbicidal rate of 5% or less (almost no effect)); herbicidal effect on J: blackgrass [11]: 2 (Herbicidal rate of 20% or more and less than 40%); herbicidal effect on R: persian speedwell [17]: 5 (Herbicidal rate of 90% or more (almost completely withered)); herbicidal effect on P: chickweed [18]: 5 (Herbicidal rate of 90% or more (almost completely withered)); herbicidal effect on I: wild oat [19]: 0 (Herbicidal rate of 5% or less (almost no effect)); herbicidal effect on L: windgrass [20]: 0 (Herbicidal rate of 5% or less (almost no effect)); herbicidal effect on K: Italian ryegrass [22]: 5 (Herbicidal rate of 90% or more (almost completely withered)); herbicidal effect on F: southern crabgrass [27]: 1 (Herbicidal rate of 5% or more and less than 20%)
Cc1ccc2sc(-c3ccc([N+](=O)[O-])cc3)c(-c3c(O)c(C)nn(C)c3=O)c2c1 [2-144]	3 (Herbicidal rate of 40% or more and less than 70%)	0 (Herbicidal rate of 5% or less (almost no effect))	2 (Herbicidal rate of 20% or more and less than 40%)	0 (Herbicidal rate of 5% or less (almost no effect))	2 (Herbicidal rate of 20% or more and less than 40%)	0 (Herbicidal rate of 5% or less (almost no effect))	3 (Herbicidal rate of 40% or more and less than 70%)	0 (Herbicidal rate of 5% or less (almost no effect))	2 (Herbicidal rate of 20% or more and less than 40%)	3 (Herbicidal rate of 40% or more and less than 70%)	0 (Herbicidal rate of 5% or less (almost no effect))	1 (Herbicidal rate of 5% or more and less than 20%)	0 (Herbicidal rate of 5% or less (almost no effect))	0 (Herbicidal rate of 5% or less (almost no effect))	0 (Herbicidal rate of 5% or less (almost no effect))	0 (Herbicidal rate of 5% or less (almost no effect))	herbicidal effect on N: redroot pigweed (criteria 0-5) [2]: 5 (Herbicidal rate of 90% or more (almost completely withered)); herbicidal effect on G: green foxtail (criteria 0-5) [3]: 0 (Herbicidal rate of 5% or less (almost no effect)); herbicidal effect on M: velvetleaf (criteria 0-5) [5]: 2 (Herbicidal rate of 20% or more and less than 40%); herbicidal effect on O: lambsquarters (criteria 0-5) [6]: 3 (Herbicidal rate of 40% or more and less than 70%); herbicidal effect on H: barnyard grass (criteria 0-5) [9]: 0 (Herbicidal rate of 5% or less (almost no effect)); herbicidal effect on J: blackgrass (criteria 0-5) [11]: 0 (Herbicidal rate of 5% or less (almost no effect)); herbicidal effect on R: persian speedwell (criteria 0-5) [17]: 5 (Herbicidal rate of 90% or more (almost completely withered)); herbicidal effect on P: chickweed (criteria 0-5) [18]: 4 (Herbicidal rate of 70% or more and less than 90%); herbicidal effect on I: wild oat (criteria 0-5) [19]: 0 (Herbicidal rate of 5% or less (almost no effect)); herbicidal effect on L: windgrass (criteria 0-5) [20]: 0 (Herbicidal rate of 5% or less (almost no effect)); herbicidal effect on K: Italian ryegrass (criteria 0-5) [22]: 4 (Herbicidal rate of 70% or more and less than 90%); herbicidal effect on F: southern crabgrass (criteria 0-5) [27]: 0 (Herbicidal rate of 5% or less (almost no effect))
